Legend:
Format in all cases: in vivo
[1] = fixed dose studies (MADRS rating scale and Clinical Global Impression); settings: escitalopram in a dose of 10 mg compared with citalopram 40 mg
[2] = tested on: Chronic Mild Stress model; assay: Chronic Mild Stress model; settings: animal models, compared with citalopram-racemate
Text: (§1) This has i.a. been found in the Chronic Mild Stress model (Wiliner P., Psychopharmachology 1997, 134, 319-329).

[3] = tested on: primary care patients with major depression disorder; assay: 8-week, double-blind, randomised, placebo-controlled, flexible-dose clinical study
Text: as §1
A total of 471 patients were randomised into the study. The all-patient-treated set comprised 469 patients and the full-analysis set comprised 468 patients.
There was an approximately 3 to 1 ratio of women to men in each treatment group, and almost all patients were Caucasian. The mean age was 43 years (SD 11). At baseline, the mean MADRS total score was approximately 29 for the treatment group, which signifies moderate to severely ill patients.

[4] = pharmacological and clinical studies / animal models (summary statements)
Text: This may be shown in functional in-vivo pharmacological models and studies of 5-HT-reuptake effect and or in behavior models, for example depression models.

## CN(C)CCC[C@@]1(c2ccc(F)cc2)OCc2cc(C#N)ccc21 [escitalopram, (S)-1-[3-(dimethylamino)propyl]-1-(4-fluorophenyl)-1,3-dihydro-5-isobenzofurancarbonitrile]
[1]
  effect as determined by MADRS rating scale and Clinical Global Impression (severity and improvement): at least same effect as citalopram in a dose of 40 mg
[2]
  speed of response: faster response than citalopram-racemate
[3]; 10 mg escitalopram, 20 mg citalopram, versus placebo
  onset of effect: showed effects after one week
[3]; Week 1 (p=0.023) to Week 4 (p=0.002), observed cases
  adjusted mean change in MADRS total score versus placebo (significance): significantly superior therapeutic effect
[3]; Week 4, last observation carried forward
  CGI improvement and severity subscale versus placebo: statistically significantly superior to placebo
[3]; Week 4, last observation carried forward, 10 mg escitalopram, 20 mg citalopram, escitalopram p=0.002, citalopram statistically insignificant
  adjusted mean change in MADRS total score versus placebo: 2.7 points
[3]; from Week 1 onwards (p<0.05), observed cases, 4-week period
  CGI improvement and severity subscale versus placebo: significantly superior to placebo
[4]; animal models and clinical studies, compared with the racemate and other SSRIs
  onset of action: faster onset of action
[4]; pharmacological and clinical studies
  potency relative to the racemate: substantially more than two times as potent as the racemate
[4]; various animal models
  extent of response: more full response

Source: patent US20040192765A1 (H. Lundbeck A/S, priority 2001, published 2004)
